Measured values taken from patent US20100016209A1, “Methods of Reducing Side Effects in Cancer Therapy” (priority 2005, published 2010).

Legend:
[1] = system: white blood cells of kidney cancer patient; test: Clinical case (B): chemotherapy with a platinum compound and MEK, white blood cells analyzed by cell sorter; assay type: in vivo, human; settings: A person; for Total T (CD3+), Percent: kidney cancer, normal 59.4-84.6; for Total T (CD3+), Percent / T Helper (CD3+, CD4+), Cell Number/μl / T Suppressor (CD3+, CD8+), Cell Number/μl / Total B (CD19+), Cell Number/μl / Total NK (CD16+/CD56+), Cell Number/μl / Total T (CD3+), Cell Number/μl / Ratio T Helper Cells/ CD3, CD4/CD3, CD8 / Total NK (CD16+/CD56+), Percent / Total B (CD19+), Percent / T Suppressor (CD3+, CD8+), Percent / T Helper (CD3+, CD4+), Percent / Lymphocytes T + B + NK, Percent: platinum compound + MEK; for Ratio T Helper Cells/ CD3, CD4/CD3, CD8: normal 0.9-3.6; for Total NK (CD16+/CD56+), Percent: normal 5.6-40.9; for Total B (CD19+), Percent: normal 6.4-22.6; for T Suppressor (CD3+, CD8+), Percent: normal 11.1-38.3; for T Helper (CD3+, CD4+), Percent: normal 28.5-60.5; for Lymphocytes T + B + NK, Percent: normal 95.0-105.0
Description: (B) A patient was diagnosed with a kidney cancer and was treated with chemotherapy with a platinum compound and MEK for about two months (July and August 2005). […] a person's white blood cells after analyzed by the cell sorter are presented as follows: […]

[2] = system: patient with metastasized cancer of the "small saliva gland"
Description: (A) A patient of was a physician in the radiation department. They were diagnosed to have cancer of the “small saliva gland” in 1996. After radiation therapy, the tumor was removed by surgery. In 2001 it was discovered that the tumor had metastasized to their left lung and they went through a second surgery in the lung. In December of 2004, the metastasis extended into the chest, diaphragm and bone and multiple sites in the lung. They were treated with regional radiation and “immuno-therapy”. Starting in the middle of December, they were given MEK intravenously (IV) at a dose of 30 μg/kg bodyweight three times per week for one month. In the next month, they were given one administration of MEK each week at 40 μg/kg. Thereafter, one injection was done for each month at 120 μg/kg for the next 5 months.

patients' immune cells = test: Clinical (C): MEK therapy in a group of 19 cancer patients, analysis of patients' immune cells (FACS Calibur); assay type: in vivo, human; settings: for Total NK (CD16+CD56) Natural killer cells, Cells/μl / Total T Cells, Cells/μl / CD4/CD3(CD8) / Total NK (CD16+CD56) Natural killer cells, in percent of total / Total T Cells, in percent of total / Total Lymphocytes (T+B+NK), in percent of total: average of 19 patients; for Total NK (CD16+CD56) Natural killer cells, Cells/μl / Total T Cells, in percent of total: before MEK 61; for Total T Cells, Cells/μl: before MEK 367; for CD4/CD3(CD8): normal 0.9-3.6, before MEK 0.61; for Total NK (CD16+CD56) Natural killer cells, in percent of total: normal 5.6-30.9, before MEK 16; for Total T Cells, in percent of total: normal range 59.5-84.6; for Total Lymphocytes (T+B+NK), in percent of total: normal range 95.0-105.0, before MEK 87
Description: (C) Therapy in group of patients: (1) Total patient number: 19 (2) Cancer category: colon cancer—8; ovary cancer—5; lung cancer—4; salivary gland cancer—1; stomach cancer—1. 12 patients were given MEK 3 weeks after chemotherapy; the other 7 patients were not treated with chemotherapy. (3) Schedule of MEK administration: First week—10˜30 μg/kg, daily IV (total 7 administrations per week); Second week—20˜40 μg/kg, ever other day IV (total 3 administrations per week); Third week—30˜50 μg/kg, once every three days, IV (total 2 administrations per week). (4) Thereafter, one administration each month, 100˜130 μg/kg for 6 months. (5) Observation Indicator: analysis of patients' immune cells. (6) Equipment used: Cytometer—FACS Calibur; Software—Simul Set V3.1. (7) Results (in average values):
In the above data, “after MEK” refers to after the end of MEK treatment.

**Q.** How did the “Total T (CD3+), Percent” value ([1]; Aug 12) turn out when Methionine enkephalin [MEK] was run?
**A.** 74%

**Q.** What about the “Total T (CD3+), Percent” value ([1]; Jul 14) of the same substance?
**A.** 70%

**Q.** And the “T Helper (CD3+, CD4+), Cell Number/μl” value ([1]; Aug 12)?
**A.** 447 Cell Number/μl

**Q.** What about the “T Suppressor (CD3+, CD8+), Cell Number/μl” value ([1]; Aug 12) of the same substance?
**A.** 931 Cell Number/μl

**Q.** And the “Total B (CD19+), Cell Number/μl” value ([1]; Aug 12)?
**A.** 74 Cell Number/μl

**Q.** What about the “Total NK (CD16+/CD56+), Cell Number/μl” value ([1]; Aug 12) of the same substance?
**A.** 447 Cell Number/μl

**Q.** What about the “Total T (CD3+), Cell Number/μl” value ([1]; Aug 12) of the same substance?
**A.** 1368 Cell Number/μl

**Q.** And the “Ratio T Helper Cells/ CD3, CD4/CD3, CD8” value ([1]; Aug 12)?
**A.** 0.48

**Q.** What about the “Total NK (CD16+/CD56+), Percent” value ([1]; Aug 12) of the same substance?
**A.** 24%

**Q.** What about the “Total B (CD19+), Percent” value ([1]; Aug 12) of the same substance?
**A.** 4%

**Q.** What about the “T Suppressor (CD3+, CD8+), Percent” value ([1]; Aug 12) of the same substance?
**A.** 50%

**Q.** What about the “T Helper (CD3+, CD4+), Percent” value ([1]; Aug 12) of the same substance?
**A.** 24%

**Q.** What about the “Lymphocytes T + B + NK, Percent” value ([1]; Aug 12) of the same substance?
**A.** 102%

**Q.** What about the “T Helper (CD3+, CD4+), Cell Number/μl” value ([1]; Jul 14) of the same substance?
**A.** 569 Cell Number/μl

**Q.** What about the “T Suppressor (CD3+, CD8+), Cell Number/μl” value ([1]; Jul 14) of the same substance?
**A.** 1274 Cell Number/μl

**Q.** What about the “Total B (CD19+), Cell Number/μl” value ([1]; Jul 14) of the same substance?
**A.** 54 Cell Number/μl

**Q.** What about the “Total NK (CD16+/CD56+), Cell Number/μl” value ([1]; Jul 14) of the same substance?
**A.** 759 Cell Number/μl

**Q.** What about the “Total T (CD3+), Cell Number/μl” value ([1]; Jul 14) of the same substance?
**A.** 1897 Cell Number/μl

**Q.** And the “Ratio T Helper Cells/ CD3, CD4/CD3, CD8” value ([1]; Jul 14)?
**A.** 0.45

**Q.** What about the “Total NK (CD16+/CD56+), Percent” value ([1]; Jul 14) of the same substance?
**A.** 28%

**Q.** And the “Total B (CD19+), Percent” value ([1]; Jul 14)?
**A.** 2%

**Q.** And the “T Suppressor (CD3+, CD8+), Percent” value ([1]; Jul 14)?
**A.** 47%

**Q.** And the “T Helper (CD3+, CD4+), Percent” value ([1]; Jul 14)?
**A.** 21%

**Q.** And the “Lymphocytes T + B + NK, Percent” value ([1]; Jul 14)?
**A.** 100%

**Q.** What about the “Numbers of T cell sub-types” value ([1]; platinum compound and MEK for about two months) of the same substance?
**A.** did not decrease but increased instead

**Q.** And the “progress of the tumor” value ([2]; CT and MRI examination)?
**A.** slowed and partially disappeared

**Q.** What about the appetite and sleep ([2]; after the therapy) of the same substance?
**A.** improved

**Q.** And the “blood pressure, pulse and liver and stomach functions” value ([2]; after the therapy)?
**A.** normal

**Q.** What about the influenza infection ([2]; during the influenza epidemic, hospital ward) of the same substance?
**A.** not infected

**Q.** And the “side effects in the GI, respiratory, skin, and peripheral circulation systems” value ([2]; during therapy with radiation, chemo, and MEK)?
**A.** no side effects

**Q.** What about the “white blood cell counts and lymphocytes” value ([2]; during therapy with radiation, chemo, and MEK, MEK IV 30-120 μg/kg) of the same substance?
**A.** decreased to some extent

**Q.** What about the “CD3/CD4 sub-group of T lymphocytes” value ([2]; monitored monthly) of the same substance?
**A.** increased

**Q.** What about the “CD3/CD8 and total CD3 subgroups” value ([2]; monitored monthly) of the same substance?
**A.** decreased

**Q.** And the “total numbers of NK cells” value ([2]; monitored monthly)?
**A.** increased

**Q.** And the “side effects among the patients treated” value (patients' immune cells; MEK as supplemental agent with chemo and/or radiation therapies)?
**A.** helped to eliminate or reduce the extent of many side effects

**Q.** And the “Total NK (CD16+CD56) Natural killer cells, Cells/μl” value (“Total NK … Cells/μl” below) (patients' immune cells; 1 month after MEK)?
**A.** 177 Cells/μl

**Q.** What about the “Total T Cells, Cells/μl” value (patients' immune cells; 1 month after MEK) of the same substance?
**A.** 655 Cells/μl

**Q.** And the “CD4/CD3(CD8)” value (patients' immune cells; 1 month after MEK)?
**A.** 0

**Q.** What about the “Total NK (CD16+CD56) Natural killer cells, in percent of total” value (“Total NK … in percent of total” below) (patients' immune cells; 1 month after MEK) of the same substance?
**A.** 22% of total

**Q.** What about the “Total T Cells, in percent of total” value (patients' immune cells; 1 month after MEK) of the same substance?
**A.** 60% of total

**Q.** What about the “Total Lymphocytes (T+B+NK), in percent of total” value (patients' immune cells; 1 month after MEK) of the same substance?
**A.** 102% of total

**Q.** What about the “Total NK … Cells/μl” value (patients' immune cells; 2 months after MEK) of the same substance?
**A.** 189 Cells/μl

**Q.** And the “Total T Cells, Cells/μl” value (patients' immune cells; 2 months after MEK)?
**A.** 587 Cells/μl

**Q.** And the “CD4/CD3(CD8)” value (patients' immune cells; 2 months after MEK)?
**A.** 1.62

**Q.** What about the “Total NK … in percent of total” value (patients' immune cells; 2 months after MEK) of the same substance?
**A.** 21% of total

**Q.** What about the “Total T Cells, in percent of total” value (patients' immune cells; 2 months after MEK) of the same substance?
**A.** 66% of total

**Q.** What about the “Total Lymphocytes (T+B+NK), in percent of total” value (patients' immune cells; 2 months after MEK) of the same substance?
**A.** 100% of total

**Q.** And the “Total NK … Cells/μl” value (patients' immune cells; 3 months after MEK)?
**A.** 306 Cells/μl

**Q.** And the “Total T Cells, Cells/μl” value (patients' immune cells; 3 months after MEK)?
**A.** 539 Cells/μl

**Q.** What about the “CD4/CD3(CD8)” value (patients' immune cells; 3 months after MEK) of the same substance?
**A.** 1.51

**Q.** What about the “Total NK … in percent of total” value (patients' immune cells; 3 months after MEK) of the same substance?
**A.** 29% of total

**Q.** What about the “Total T Cells, in percent of total” value (patients' immune cells; 3 months after MEK) of the same substance?
**A.** 67% of total

**Q.** And the “Total Lymphocytes (T+B+NK), in percent of total” value (patients' immune cells; 3 months after MEK)?
**A.** 104% of total

**Q.** What about the “Total NK … Cells/μl” value (patients' immune cells; 4 months after MEK) of the same substance?
**A.** 349 Cells/μl

**Q.** What about the “Total T Cells, Cells/μl” value (patients' immune cells; 4 months after MEK) of the same substance?
**A.** 694 Cells/μl

**Q.** What about the “CD4/CD3(CD8)” value (patients' immune cells; 4 months after MEK) of the same substance?
**A.** 1.53

**Q.** What about the “Total NK … in percent of total” value (patients' immune cells; 4 months after MEK) of the same substance?
**A.** 26% of total

**Q.** What about the “Total T Cells, in percent of total” value (patients' immune cells; 4 months after MEK) of the same substance?
**A.** 79% of total

**Q.** What about the “Total Lymphocytes (T+B+NK), in percent of total” value (patients' immune cells; 4 months after MEK) of the same substance?
**A.** 103% of total

**Q.** And the “Total NK … Cells/μl” value (patients' immune cells; 5 months after MEK)?
**A.** 368 Cells/μl

**Q.** And the “Total T Cells, Cells/μl” value (patients' immune cells; 5 months after MEK)?
**A.** 637 Cells/μl

**Q.** And the “CD4/CD3(CD8)” value (patients' immune cells; 5 months after MEK)?
**A.** 1.80

**Q.** And the “Total NK … in percent of total” value (patients' immune cells; 5 months after MEK)?
**A.** 25% of total

**Q.** What about the “Total T Cells, in percent of total” value (patients' immune cells; 5 months after MEK) of the same substance?
**A.** 73% of total

**Q.** What about the “Total Lymphocytes (T+B+NK), in percent of total” value (patients' immune cells; 5 months after MEK) of the same substance?
**A.** 102% of total

**Q.** What about the “Total NK … Cells/μl” value (patients' immune cells; 6 months after MEK) of the same substance?
**A.** 359 Cells/μl

**Q.** And the “Total T Cells, Cells/μl” value (patients' immune cells; 6 months after MEK)?
**A.** 568 Cells/μl

**Q.** And the “CD4/CD3(CD8)” value (patients' immune cells; 6 months after MEK)?
**A.** 1.61

**Q.** And the “Total NK … in percent of total” value (patients' immune cells; 6 months after MEK)?
**A.** 27% of total

**Q.** And the “Total T Cells, in percent of total” value (patients' immune cells; 6 months after MEK)?
**A.** 80% of total

**Q.** And the “Total Lymphocytes (T+B+NK), in percent of total” value (patients' immune cells; 6 months after MEK)?
**A.** 103% of total

**Q.** What about the “CD4/CD3(CD8), NK (CD16+CD56), and total T cells” value (patients' immune cells; cancer patients, MEK in conjunction with chemo and/or radiation therapies, after one month of MEK administration) of the same substance?
**A.** either were maintained normally or increased
